Measurements reported in ChEMBL document CHEMBL5393443, “Novel inhibitors of insulin-like growth factor 2 mrna binding proteins” (2022).

tested on: ES-2; experiment: Cytotoxicity against human ES2 cells after 72 hrs by InuCyte live cell imaging analysis; assay type: functional, cell-based; settings: ES-2, 72 h

Point of comparison: CNC(=O)c1ccccc1NC(=O)c1cc(C)c(C)s1, EC50 2830 nM. Against it:
- Cc1cc2c(O)nc(Cc3ccccc3)nc2s1 — 1.7-fold higher, 4840 nM
- NC(=O)c1ccsc1NC(=O)c1cccs1 — within 1.5-fold, 3230 nM
- NC(=O)c1ccccc1NC(=O)CN1CCN(Cc2ccc(Cl)cc2Cl)CC1 — 2.8-fold lower, 993 nM
- NC(=O)c1ccccc1NC(=O)c1ccccc1 — 3.7-fold higher, 10500 nM
- NC(=O)c1cc(Cc2ccccc2)sc1NC(=O)CN1CCN(Cc2ccccc2Cl)CC1 — 2.5-fold higher, 7110 nM
- COc1ccc(C(=O)Nc2sc(Cc3ccccc3)cc2C(N)=O)cc1 — within 1.5-fold, 1940 nM
- COc1ccc(C(=O)Nc2sc(C(C)C)cc2C(N)=O)cc1COc1ccc(Br)cc1 — 2.9-fold higher, 8340 nM
- CC(Sc1nnc(NC(=O)c2ccccc2)s1)c1nc2ccccc2c(=O)[nH]1 (configuration not stated) — within 1.5-fold, 4050 nM
- NC(=O)c1cc(Cc2ccccc2)sc1NC(=O)c1ccc2c(c1)OCO2 — 2.2-fold lower, 1300 nM
- NC(=O)c1ccccc1NC(=O)c1ccc(Cl)c(Cl)c1 — 1.5-fold lower, 1880 nM
- COc1cc(/C=C/C(=O)Nc2ccccc2C(N)=O)ccc1OCc1ccccc1 — 1.5-fold lower, 1880 nM
- NC(=O)c1cc(Cc2ccccc2)sc1NC(=O)c1ccccc1 — within 1.5-fold, 2270 nM
- COc1ccc(C(=O)Nc2ccccc2C(N)=O)cc1COc1ccccc1Cl — 2.6-fold lower, 1100 nM
- NC(=O)c1ccsc1NC(=O)CN1CCN(Cc2ccc(Cl)c(Cl)c2)CC1 — 3.6-fold lower, 781 nM
- NC(=O)c1cc(Cc2ccccc2)sc1NC(=O)Cc1cccs1 — 2.4-fold lower, 1160 nM
- CC(C)c1cc(C(N)=O)c(NC(=O)Cc2ccc(Cl)c(Cl)c2)s1 — within 1.5-fold, 2450 nM
- NC(=O)c1ccccc1NC(=O)CN1CCN(Cc2c(Cl)cccc2Cl)CC1 — 2.3-fold higher, 6460 nM
- NC(=O)c1cc(Cc2ccccc2)sc1NC(=O)c1cccs1 — 4.2-fold lower, 671 nM
- COc1cc(-c2nc3ccccc3c(=O)[nH]2)ccc1OCc1ccccc1[N+](=O)[O-] — 5.9-fold lower, 476 nM
- NC(=O)c1ccccc1OCC(=O)c1ccc(Br)cc1 — within 1.5-fold, 2950 nM
- COc1ccc(C(=O)Nc2sc(Cc3ccccc3)cc2C(N)=O)cc1COc1c(Cl)cccc1Cl — within 1.5-fold, 2600 nM
- NC(=O)c1ccccc1NC(=O)c1cc(Cl)cc(Cl)c1 — 1.8-fold higher, 5140 nM
- NC(=O)c1c(NC(=O)c2ccc(Cl)s2)sc2c1CCCC2 — 1.9-fold lower, 1470 nM
- O=c1[nH]c(-c2ccc(OCc3ccccc3F)cc2)nc2ccccc12 — 11-fold lower, 250 nM
- NC(=O)c1ccccc1NC(=O)c1cccc(COc2cccc(Cl)c2)c1 — 4.2-fold lower, 675 nM
- COc1ccc(C(=O)Nc2sc(Cc3ccccc3)cc2C(N)=O)cc1COc1ccccc1Cl — 6.4-fold lower, 439 nM
- COc1ccc(C(=O)Nc2sc(C(C)C)cc2C(N)=O)cc1COc1ccccc1Cl — within 1.5-fold, 2230 nM
- NC(=O)c1cc(Cc2ccccc2)sc1NC(=O)COc1ccccc1 — within 1.5-fold, 2420 nM
- NC(=O)c1ccccc1NC(=O)C1CCN(C(=O)c2cccs2)CC1 — 1.8-fold higher, 5180 nM
- NC(=O)c1cc(Cc2ccccc2)sc1NC(=O)c1cccc(COc2ccc(Cl)cc2Cl)c1 — 60-fold lower, 47 nM
- CCc1cc(C(=O)Nc2sccc2C(N)=O)cs1 — within 1.5-fold, 2950 nM
- COc1ccc(C(=O)Nc2ccccc2C(N)=O)cc1Cl — 2.1-fold higher, 5840 nM
- NC(=O)c1ccccc1NC(=O)CN1CCN(Cc2ccc(Cl)c(Cl)c2)CC1 — 2.3-fold lower, 1220 nM
- NC(=O)c1cc(Cc2ccccc2)sc1NC(=O)c1ccc(COc2ccc(Br)cc2)cc1 — 2.4-fold lower, 1190 nM
- COc1ccc(C(=O)Nc2sc(Cc3ccccc3)cc2C(N)=O)cc1OCc1ccccc1Cl — 2.6-fold lower, 1100 nM
- COc1ccc(C(=O)Nc2sc(Cc3ccccc3)cc2C(N)=O)cc1COc1cccc(Cl)c1 — 8-fold lower, 355 nM
- CCc1c(C(=O)Nc2sc(Cc3ccccc3)cc2C(N)=O)csc1C — 1.8-fold higher, 5060 nM
- NC(=O)c1ccccc1NC(=O)CN1CCN(Cc2ccc(Cl)cc2)CC1 — within 1.5-fold, 2990 nM
- NC(=O)c1cc(Cc2ccccc2)sc1NC(=O)c1ccc(COc2ccc(Cl)cc2Cl)s1 — 5.1-fold lower, 560 nM
- COc1ccc(C(=O)Nc2sc(Cc3ccccc3)cc2C(N)=O)cc1COc1cccc(Cl)c1Cl — 7.1-fold lower, 401 nM
- NC(=O)c1c(NC(=O)c2ccc(Cl)s2)sc2c1CCC2 — 2.2-fold higher, 6270 nM
- NC(=O)c1cc(Cc2ccccc2)sc1NC(=O)c1ccc(Cl)s1 — 1.7-fold lower, 1660 nM
- COc1ccc(C(=O)Nc2sccc2C(N)=O)cc1COc1ccccc1Cl — 1.7-fold lower, 1660 nM
- NC(=O)c1ccccc1NC(=O)CN1CCN(Cc2ccc(F)cc2Cl)CC1 — within 1.5-fold, 3170 nM
- NC(=O)c1ccccc1NC(=O)c1ccc(Cl)s1 — within 1.5-fold, 2300 nM
- COc1ccc(OCc2cc(-c3nc4sc(Cc5ccccc5)cc4c(=O)[nH]3)ccc2OC)cc1 — 2.5-fold lower, 1120 nM
- CCc1cc(C(=O)Nc2sc(Cc3ccccc3)cc2C(N)=O)cs1 — within 1.5-fold, 1900 nM
- COc1ccc(C(=O)Nc2sc(Cc3ccccc3)cc2C(N)=O)cc1COc1ccc(Cl)cc1 — 2.8-fold lower, 1020 nM
- NC(=O)c1cc(Cc2ccccc2)sc1NC(=O)CCc1ccccc1 — 2.2-fold higher, 6210 nM
- Cc1ccc(C(=O)Nc2ccccc2C(N)=O)s1 — within 1.5-fold, 2060 nM
- NC(=O)c1ccccc1OCc1ccc(Cl)s1 — 2-fold higher, 5610 nM
- COc1ccc(C(=O)Nc2sc(Cc3ccccc3)cc2C(N)=O)cc1COc1ccc(Cl)cc1Cl — 9.7-fold lower, 293 nM
- NC(=O)c1ccccc1NC(=O)CN1CCN(Cc2ccccc2Cl)CC1 — 3.4-fold higher, 9580 nM
- NC(=O)c1cc(Cc2ccccc2)sc1NC(=O)CN1CCN(Cc2ccc(Cl)c(Cl)c2)CC1 — within 1.5-fold, 4090 nM
- NC(=O)c1cc(Cl)ccc1OCC(=O)c1ccc(Cl)s1 — 2.1-fold lower, 1330 nM
- Cc1ccc(C(=O)Nc2sc(Cc3ccccc3)cc2C(N)=O)o1 — 2.1-fold lower, 1340 nM
